From patent US7138361B2, “Herbicidal heterocycles” (E. I. du Pont de Nemours and Company, priority 2000, dated 2006)

Columns and labels:
Assay type in all cases: in vivo
[1] = system: smallflower flatsedge (Cyperus difformis); test: Test C flooded paddy test; conditions: for Flatsedge plant response rating: Flooded Paddy, scale 0 to 100, 0 no effect, 100 complete control; for Plant response rating, Flatsedge: flooded paddy test, scale 0 to 100 (0 no effect, 100 complete control)
Outline: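 Response on a 0-to-100 scale (no effect to complete control) was assessed by eye versus controls. Plants had reached 2 leaves when treated in flooded paddy conditions. The assessment took place after 12–14 days of greenhouse growth.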

Sunflower [2] = test: Test C preemergence; conditions: Rate 250 g/ha, scale 0 to 100, 0 no effect, 100 complete control
Sunflower [3] = test: Test C preemergence; conditions: Rate 500 g/ha, visual evaluation after 12 to 14 days
[4] = system: Surinam grass (Brachiaria decumbens); test: Test B preemergence
Outline: (§1)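 Pre: seeded pots sprayed, chemical in non-phytotoxic solvent/surfactant mix. Post: plants 2–18 cm, 1–4 leaf, same formulation. Greenhouse 13–15 d; visual % control vs untreated, 0–100 scale.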

[5] = system: giant foxtail (Setaria faberii); test: Test B preemergence
Outline: as §1

rice (Oryza saliva) = test: Test B preemergence
Outline: as §1

[6] = system: morning glory (Ipomoea hederacea); test: Test B preemergence
Outline: as §1

[7] = system: velvetleaf (Abutilon theophrasti); test: Test B preemergence
Outline: as §1

[8] = system: lambsquarters (Chenopodium album); test: Test B preemergence
Outline: as §1

[9] = system: crabgrass (Digitaria sanguinalis); test: Test B preemergence
Outline: as §1

[10] = system: pigweed (Amaranthus retroflexus); test: Test B preemergence
Outline: as §1

[11] = system: barnyardgrass (Echinochloa crus-galli); test: Test B preemergence
Outline: as §1

corn (Zea mays) [12] = test: Test B preemergence
Outline: as §1

[13] = system: cocklebur (Xanthium strumarium); test: Test B preemergence
Outline: as §1

[14] = system: Surinam grass (Brachiaria decumbens); test: Test B postemergence
Outline: as §1

[15] = system: giant foxtail (Setaria faberii); test: Test B postemergence
Outline: as §1

[16] = system: morning glory (Ipomoea hederacea); test: Test B postemergence
Outline: as §1

[17] = system: wheat (Triticum aestivum); test: Test B postemergence
Outline: as §1

[18] = system: velvetleaf (Abutilon theophrasti); test: Test B postemergence
Outline: as §1

[19] = system: lambsquarters (Chenopodium album); test: Test B postemergence
Outline: as §1

[20] = system: crabgrass (Digitaria sanguinalis); test: Test B postemergence
Outline: as §1

[21] = system: pigweed (Amaranthus retroflexus); test: Test B postemergence
Outline: as §1

wild oat (Avena fatua) = test: Test B postemergence
Outline: as §1

[22] = system: blackgrass (Alopecurus myosuroides); test: Test B postemergence
Outline: as §1

[23] = system: barnyardgrass (Echinochloa crus-galli); test: Test B postemergence
Outline: as §1

corn (Zea mays) [24] = test: Test B postemergence
Outline: as §1

[25] = system: cocklebur (Xanthium strumarium); test: Test B postemergence
Outline: as §1

[26] = Preemergence, Rate 500 g/ha, scale 0 to 100, 0 no effect, 100 complete control
[27] = preemergence, Rate 125 g/ha, scale of 0 to 100 where 0 is no effect and 100 is complete control, 13 to 15 days
[28] = Rate 125 g/ha, scale 0 (no effect) to 100 (complete control), 13 to 15 days
[29] = Rate 500 g/ha, scale 0 to 100, 0 is no effect, 100 is complete control, 13 to 15 days
[30] = Rate 125 g/ha, scale 0 to 100, 0 no effect, 100 complete control

Compound: CCCOc1cc(N2CCC(n3ccc(C(C)(C)C)n3)C2=O)ccc1C (stereo not shown) [Compound 107]
- Flatsedge plant response rating ([1]; Rate 250 g/ha): 60
- Flatsedge plant response rating ([1]; Rate 500 g/ha): 100
- Plant response rating, Flatsedge ([1]; Rate 62 g/ha): 30
- Plant response rating, Flatsedge ([1]; Rate 125 g/ha): 50
- Plant response rating, Sunflower (Sunflower [2]): 40
- Plant response rating (0 to 100), Sunflower (Sunflower [3]): 70
- Plant response rating, Surinam grass [4, 26]: 70
- Plant response rating, Surinam grass [4, 27]: 0
- Plant response rating, Foxtail, Giant [5, 26]: 40
- Plant response rating, Foxtail, Giant [5, 27]: 0
- Plant response rating, Rice (rice (Oryza saliva); [26]): 0
- Plant response rating, Rice (rice (Oryza saliva); [27]): 0
- Plant response rating, Morningglory [6, 26]: 100
- Plant response rating, Morningglory [6, 27]: 0
- Plant response rating, Velvetleaf [7, 26]: 0
- Plant response rating, Velvetleaf [7, 27]: 0
- Plant response rating, Lambsquarters [8, 26]: 100
- Plant response rating, Lambsquarters [8, 27]: 100
- Plant response rating, Crabgrass [9, 26]: 100
- Plant response rating, Crabgrass [9, 27]: 0
- Plant response rating, Pigweed [10, 26]: 100
- Plant response rating, Pigweed [10, 27]: 80
- Plant response rating, Barnyardgrass [11, 26]: 30
- Plant response rating, Barnyardgrass [11, 27]: 0
- Plant response rating, Corn (corn (Zea mays) [12]; [26]): 0
- Plant response rating, Corn (corn (Zea mays) [12]; [27]): 0
- Plant response rating, Cocklebur [13, 26]: 20
- Plant response rating, Cocklebur [13, 27]: 0
- Plant response rating, Surinam grass [14, 28]: 0
- Plant response rating, Surinam grass [14, 29]: 0
- Plant response rating, Foxtail, Giant [15, 28]: 0
- Plant response rating, Foxtail, Giant [15, 29]: 0
- Plant response rating, Morningglory [16, 29]: 70
- Plant response rating, Wheat [17, 29]: 0
- Plant response rating, Velvetleaf [18, 29]: 70
- Plant response rating, Lambsquarters [19, 29]: 100
- Plant response rating, Crabgrass [20, 28]: 0
- Plant response rating, Crabgrass [20, 29]: 0
- Plant response rating, Pigweed [21, 29]: 90
- Plant response rating, Wild Oat (wild oat (Avena fatua); [29]): 0
- Plant response rating, Blackgrass [22, 28]: 0
- Plant response rating, Blackgrass [22, 29]: 0
- Plant response rating, Barnyardgrass [23, 28]: 0
- Plant response rating, Barnyardgrass [23, 29]: 0
- Plant response rating, Corn (corn (Zea mays) [24]; [28]): 0
- Plant response rating, Corn (corn (Zea mays) [24]; [29]): 0
- Plant response rating, Cocklebur [25, 28]: 70
- Plant response rating, Cocklebur [25, 29]: 100

Compound: CC(C)c1cccc(N2CCC(n3ccc(C(C)(C)C)n3)C2=O)c1 (stereo not shown) [Compound 111]
- Flatsedge plant response rating ([1]; Rate 250 g/ha): 90
- Flatsedge plant response rating ([1]; Rate 500 g/ha): 90
- Plant response rating, Flatsedge ([1]; Rate 62 g/ha): 50
- Plant response rating, Flatsedge ([1]; Rate 125 g/ha): 60
- Plant response rating, Sunflower (Sunflower [2]): 0
- Plant response rating (0 to 100), Sunflower (Sunflower [3]): 0
- Plant response rating, Surinam grass [4, 26]: 0
- Plant response rating, Surinam grass [4, 27]: 0
- Plant response rating, Foxtail, Giant [5, 26]: 0
- Plant response rating, Foxtail, Giant [5, 27]: 0
- Plant response rating, Rice (rice (Oryza saliva); [26]): 0
- Plant response rating, Rice (rice (Oryza saliva); [27]): 0
- Plant response rating, Morningglory [6, 26]: 0
- Plant response rating, Morningglory [6, 27]: 0
- Plant response rating, Velvetleaf [7, 26]: 0
- Plant response rating, Velvetleaf [7, 27]: 0
- Plant response rating, Lambsquarters [8, 26]: 100
- Plant response rating, Lambsquarters [8, 27]: 30
- Plant response rating, Crabgrass [9, 26]: 100
- Plant response rating, Crabgrass [9, 27]: 70
- Plant response rating, Pigweed [10, 26]: 100
- Plant response rating, Pigweed [10, 27]: 0
- Plant response rating, Barnyardgrass [11, 26]: 100
- Plant response rating, Barnyardgrass [11, 27]: 0
- Plant response rating, Corn (corn (Zea mays) [12]; [26]): 30
- Plant response rating, Corn (corn (Zea mays) [12]; [27]): 0
- Plant response rating, Cocklebur [13, 26]: 0
- Plant response rating, Cocklebur [13, 27]: 0
- Plant response rating, Surinam grass [14, 30]: 0
- Plant response rating, Surinam grass [14, 29]: 40
- Plant response rating, Foxtail, Giant [15, 30]: 0
- Plant response rating, Foxtail, Giant [15, 29]: 0
- Plant response rating, Morningglory [16, 30]: 0
- Plant response rating, Morningglory [16, 29]: 0
- Plant response rating, Wheat [17, 30]: 20
- Plant response rating, Wheat [17, 29]: 20
- Plant response rating, Velvetleaf [18, 30]: 0
- Plant response rating, Velvetleaf [18, 29]: 0
- Plant response rating, Lambsquarters [19, 30]: 0
- Plant response rating, Lambsquarters [19, 29]: 20
- Plant response rating, Crabgrass [20, 30]: 0
- Plant response rating, Crabgrass [20, 29]: 30
- Plant response rating, Pigweed [21, 30]: 0
- Plant response rating, Pigweed [21, 29]: 0
- Plant response rating, Wild Oat (wild oat (Avena fatua); [30]): 0
- Plant response rating, Wild Oat (wild oat (Avena fatua); [29]): 60
- Plant response rating, Blackgrass [22, 30]: 0
- Plant response rating, Blackgrass [22, 29]: 20
- Plant response rating, Barnyardgrass [23, 30]: 0
- Plant response rating, Barnyardgrass [23, 29]: 0
- Plant response rating, Corn (corn (Zea mays) [24]; [30]): 0
- Plant response rating, Corn (corn (Zea mays) [24]; [29]): 0
- Plant response rating, Cocklebur [25, 30]: 0
- Plant response rating, Cocklebur [25, 29]: 0

Compound: COc1cc(N2CCC(n3ccc(C(C)C)n3)C2=O)ccc1Cl (stereo not shown) [Compound 120]
- Flatsedge plant response rating ([1]; Rate 250 g/ha): 100
- Flatsedge plant response rating ([1]; Rate 500 g/ha): 100
- Plant response rating, Flatsedge ([1]; Rate 62 g/ha): 90
- Plant response rating, Flatsedge ([1]; Rate 125 g/ha): 100
- Plant response rating, Sunflower (Sunflower [2]): 100
- Plant response rating (0 to 100), Sunflower (Sunflower [3]): 100
- Plant response rating, Surinam grass [4, 26]: 100
- Plant response rating, Surinam grass [4, 27]: 40
- Plant response rating, Foxtail, Giant [5, 26]: 100
- Plant response rating, Foxtail, Giant [5, 27]: 100
- Plant response rating, Rice (rice (Oryza saliva); [26]): 30
- Plant response rating, Rice (rice (Oryza saliva); [27]): 20
- Plant response rating, Morningglory [6, 26]: 100
- Plant response rating, Morningglory [6, 27]: 70
- Plant response rating, Velvetleaf [7, 26]: 40
- Plant response rating, Velvetleaf [7, 27]: 20
- Plant response rating, Lambsquarters [8, 26]: 100
- Plant response rating, Lambsquarters [8, 27]: 100
- Plant response rating, Crabgrass [9, 26]: 100
- Plant response rating, Crabgrass [9, 27]: 100
- Plant response rating, Pigweed [10, 26]: 100
- Plant response rating, Pigweed [10, 27]: 100
- Plant response rating, Barnyardgrass [11, 26]: 100
- Plant response rating, Barnyardgrass [11, 27]: 100
- Plant response rating, Corn (corn (Zea mays) [12]; [26]): 50
- Plant response rating, Corn (corn (Zea mays) [12]; [27]): 20
- Plant response rating, Cocklebur [13, 26]: 40
- Plant response rating, Cocklebur [13, 27]: 20
- Plant response rating, Surinam grass [14, 30]: 20
- Plant response rating, Surinam grass [14, 29]: 40
- Plant response rating, Foxtail, Giant [15, 30]: 0
- Plant response rating, Morningglory [16, 30]: 50
- Plant response rating, Wheat [17, 30]: 10
- Plant response rating, Velvetleaf [18, 30]: 20
- Plant response rating, Lambsquarters [19, 30]: 60
- Plant response rating, Crabgrass [20, 30]: 30
- Plant response rating, Pigweed [21, 30]: 60
- Plant response rating, Wild Oat (wild oat (Avena fatua); [30]): 30
- Plant response rating, Blackgrass [22, 30]: 0
- Plant response rating, Blackgrass [22, 29]: 0
- Plant response rating, Barnyardgrass [23, 30]: 0
- Plant response rating, Barnyardgrass [23, 29]: 60
- Plant response rating, Corn (corn (Zea mays) [24]; [30]): 0
- Plant response rating, Corn (corn (Zea mays) [24]; [29]): 20
- Plant response rating, Cocklebur [25, 30]: 90
- Plant response rating, Cocklebur [25, 29]: 100
